Patent US8134015B2, “Compound inhibiting in vivo phosphorous transport and medicine containing the same” (Kyowa Hakko Kirin Co., Ltd., priority 2003, dated 2012)

Legend:
human NaPi-2a = molecular target: T1, human NaPi-2a (Homo sapiens, UniProt Q06495); test: Sodium-dependent phosphate uptake of Xenopus oocytes which expressed NaPi-2a (32P); format: cell-based; settings: phosphate uptake, Xenopus oocytes expressing human NaPi-2a; five concentration levels
T1 construct: expressed in transfected cells
T1 sequence (Q06495 1-639): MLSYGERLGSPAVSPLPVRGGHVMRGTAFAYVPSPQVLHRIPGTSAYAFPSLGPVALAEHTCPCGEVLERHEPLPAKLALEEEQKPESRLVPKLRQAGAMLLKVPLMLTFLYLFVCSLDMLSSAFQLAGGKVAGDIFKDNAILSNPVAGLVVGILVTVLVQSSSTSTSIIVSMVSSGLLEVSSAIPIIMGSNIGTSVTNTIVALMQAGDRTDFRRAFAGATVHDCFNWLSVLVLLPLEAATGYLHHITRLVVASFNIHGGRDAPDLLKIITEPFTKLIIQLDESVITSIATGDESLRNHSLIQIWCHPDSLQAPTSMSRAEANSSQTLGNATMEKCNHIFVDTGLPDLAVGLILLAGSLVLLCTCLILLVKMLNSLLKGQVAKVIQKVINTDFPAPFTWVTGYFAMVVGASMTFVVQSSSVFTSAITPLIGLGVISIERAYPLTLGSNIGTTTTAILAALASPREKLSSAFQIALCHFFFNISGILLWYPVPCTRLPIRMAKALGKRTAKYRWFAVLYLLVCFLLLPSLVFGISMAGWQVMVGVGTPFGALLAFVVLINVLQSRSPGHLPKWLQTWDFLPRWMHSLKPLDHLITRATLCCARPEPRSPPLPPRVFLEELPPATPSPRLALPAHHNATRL
Source text: Experiment of Sodium-Dependent Phosphate Uptake of Xenopus oocytes which Expressed NaPi-2a
In the test, a group with the addition of choline chloride (Choline Cl) was used as a negative control for nonspecific uptake, and PFA (phosphonoformic acid) was used as a positive control for phosphate transport inhibition.

rat NaPi-2b = molecular target: T2, rat NaPi-2b (Rattus norvegicus, UniProt Q9JJ09); test: Sodium-dependent phosphate uptake of Xenopus oocytes which expressed NaPi-2b (32P); format: cell-based; settings: Xenopus oocytes expressing rat NaPi-2b, 32P radioactive phosphorus; read-out: IC50 (phosphate uptake inhibitory activity)
T2 construct: expressed in transfected cells; host or cells: Xenopus oocytes injected with cRNA
T2 sequence (Q9JJ09 1-695): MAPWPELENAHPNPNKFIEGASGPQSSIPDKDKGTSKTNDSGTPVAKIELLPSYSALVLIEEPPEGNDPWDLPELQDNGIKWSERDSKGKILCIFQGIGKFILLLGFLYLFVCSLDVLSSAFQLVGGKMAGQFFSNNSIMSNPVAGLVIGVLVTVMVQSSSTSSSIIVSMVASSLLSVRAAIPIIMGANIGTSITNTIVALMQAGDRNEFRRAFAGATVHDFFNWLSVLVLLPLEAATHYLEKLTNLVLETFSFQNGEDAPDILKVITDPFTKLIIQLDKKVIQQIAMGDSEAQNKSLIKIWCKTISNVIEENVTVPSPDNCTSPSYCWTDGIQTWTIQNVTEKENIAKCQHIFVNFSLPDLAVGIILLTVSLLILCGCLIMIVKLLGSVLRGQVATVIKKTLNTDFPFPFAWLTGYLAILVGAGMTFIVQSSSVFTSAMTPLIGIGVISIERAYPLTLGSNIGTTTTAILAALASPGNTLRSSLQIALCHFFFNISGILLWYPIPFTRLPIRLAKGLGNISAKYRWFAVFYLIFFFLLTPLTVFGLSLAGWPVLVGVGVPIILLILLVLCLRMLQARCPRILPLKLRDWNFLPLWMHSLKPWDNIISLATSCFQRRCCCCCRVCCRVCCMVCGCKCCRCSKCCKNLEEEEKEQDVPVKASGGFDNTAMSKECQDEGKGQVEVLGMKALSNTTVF
Method in brief: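 Read-out is 32P phosphate uptake into Xenopus oocytes expressing rat intestinal NaPi-2b (cRNA injection, 2-day culture). Inhibition at 300 μM and 100 μM was derived from a single inhibition curve and given as percent.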

| Structure (SMILES) | IC50 (human NaPi-2a) [nM] | IC50 (rat NaPi-2b) [nM] |
| --- | --- | --- |
| CCN(CC)CCN(C)Cc1cccc(C(=O)Nc2ccc(N3CCCCC3)cc2C(=O)N/N=C/c2ccc(F)cc2)c1 [Compound 860, 3-{[(2-Diethylamino-ethyl)-methyl-amino]-methyl}-N-[2-(4-fluoro-benzylidene-hydrazinocarbonyl)-4-piperidin-1-yl-phenyl]-benzamide] | < 1000 | 650 |
| CCN(CC)CCN(C)Cc1cccc(C(=O)Nc2ccc(N3CCCCC3)cc2C(=O)N/N=C/c2cccc(F)c2)c1 [Compound 861, 3-{[(2-Diethylamino-ethyl)-methyl-amino]-methyl}-N-[2-(3-fluoro-benzylidene-hydrazinocarbonyl)-4-piperidin-1-yl-phenyl]-benzamide] | < 1000 | 520 |
| CCN(CC)CCN(C)Cc1cccc(C(=O)Nc2ccc(N3CCCCC3)cc2C(=O)N/N=C/c2ccc(Cl)c(C(F)(F)F)c2)c1 [Compound 862, N-[2-(4-Chloro-3-trifluoromethyl-benzylidene-hydrazinocarbonyl)-4-piperidin-1-yl-phenyl]-3-{[(2-diethylamino-ethyl)-methyl-amino]-methyl}-benzamide] | 1650 | 350 |
| CCN(CC)CCN(C)Cc1cccc(C(=O)Nc2ccc(N3CCCCC3)cc2C(=O)N/N=C/c2ccc(OC)cc2)c1 [Compound 863, 3-{[(2-Diethylamino-ethyl)-methyl-amino]-methyl}-N-[2-(4-methoxy-benzylidene-hydrazinocarbonyl)-4-piperidin-1-yl-phenyl]-benzamide] | 6900 | 1220 |
| Cc1ccc(/C=N/NC(=O)c2cc(N3CCCCC3)ccc2NC(=O)c2cccc(CN3CCN(CCO)CC3)c2)cc1C [Compound 864, N-[2-(3,4-Dimethyl-benzylidene-hydrazinocarbonyl)-4-piperidin-1-yl-phenyl]-3-[4-(2-hydroxy-ethyl)-piperazin-1-ylmethyl]-benzamide] | 1940 | 740 |
| Cc1ccc(/C=N/NC(=O)c2cc(N3CCCCC3)ccc2NC(=O)c2cccc(CN3CCN(CCO)CC3)c2)cc1 [Compound 865, 3-[4-(2-Hydroxy-ethyl)-piperazin-1-ylmethyl]-N-[2-(4-methyl-benzylidene-hydrazinocarbonyl)-4-piperidin-1-yl-phenyl]-benzamide] | 4340 | 1490 |
| CCN(CC)CCSCc1cccc(C(=O)Nc2ccc(N3CCCCC3)cc2C(=O)N/N=C/c2ccc(Cl)c(C(F)(F)F)c2)c1 [Compound 878, N-[2-(4-Chloro-3-trifluoromethyl-benzylidene-hydrazinocarbonyl)-4-piperidin-1-yl-phenyl]-3-(2-diethylamino-ethylsulfanylmethyl)-benzamide] | 7220 | < 300 |
| Cc1ccc(/C=N/NC(=O)c2cc(N3CCCCC3)ccc2NC(=O)c2cccc(CSCCO)c2)cc1C [Compound 880, N-[2-(3,4-Dimethyl-benzylidene-hydrazinocarbonyl)-4-piperidin-1-yl-phenyl]-3-(2-hydroxy-ethylsulfanylmethyl)-benzamide] | 1300 | 80 |
| Cc1ccc(/C=N/NC(=O)c2cc(N3CCCCC3)ccc2NC(=O)c2cccc(CSCCO)c2)cc1 [Compound 881, 3-(2-Hydroxy-ethylsulfanylmethyl)-N-[2-(4-methyl-benzylidene-hydrazinocarbonyl)-4-piperidin-1-yl-phenyl]-benzamide] | 2670 | 180 |
| O=C(Nc1ccc(N2CCCCC2)cc1C(=O)N/N=C/c1ccc(F)cc1)c1cccc(CSCCO)c1 [Compound 882, N-[2-(4-Fluoro-benzylidene-hydrazinocarbonyl)-4-piperidin-1-yl-phenyl]-3-(2-hydroxy-ethylsulfanylmethyl)-benzamide] | 4450 | 330 |
| O=C(Nc1ccc(N2CCCCC2)cc1C(=O)N/N=C/c1cccc(F)c1)c1cccc(CSCCO)c1 [Compound 883, N-[2-(3-Fluoro-benzylidene-hydrazinocarbonyl)-4-piperidin-1-yl-phenyl]-3-(2-hydroxy-ethylsulfanylmethyl)-benzamide] | 1980 | 40 |
| O=C(Nc1ccc(N2CCCCC2)cc1C(=O)N/N=C/c1ccc(Cl)c(C(F)(F)F)c1)c1cccc(CSCCO)c1 [Compound 884, N-[2-(4-Chloro-3-trifluoromethyl-benzylidene-hydrazinocarbonyl)-4-piperidin-1-yl-phenyl]-3-(2-hydroxy-ethylsulfanylmethyl)-benzamide] | 35900 | 950 |

Continued, values first:

| IC50 (human NaPi-2a) [nM] | IC50 (rat NaPi-2b) [nM] | Structure (SMILES) |
| --- | --- | --- |
| 2930 | 810 | Cc1ccc(/C=N/NC(=O)c2cc(N3CCCCC3)ccc2NC(=O)c2cccc(CSCCC(=O)O)c2)cc1C [Compound 886, 3-{3-[2-(3,4-Dimethyl-benzylidene-hydrazinocarbonyl)-4-piperidin-1-yl-phenylcarbamoyl]-benzylsulfanyl}-propionic acid] |
| 15100 | 1750 | Cc1ccc(/C=N/NC(=O)c2cc(N3CCCCC3)ccc2NC(=O)c2cccc(CSCCC(=O)O)c2)cc1 [Compound 887, 3-{3-[2-(4-Methyl-benzylidene-hydrazinocarbonyl)-4-piperidin-1-yl-phenylcarbamoyl]-benzylsulfanyl}-propionic acid] |
| 1410 | 330 | O=C(O)CCSCc1cccc(C(=O)Nc2ccc(N3CCCCC3)cc2C(=O)N/N=C/c2ccc(Cl)c(C(F)(F)F)c2)c1 [Compound 889, 3-{3-[2-(4-Chloro-3-trifluoromethyl-benzylidene-hydrazinocarbonyl)-4-piperidin-1-yl-phenylcarbamoyl]-benzylsulfanyl}-propionic acid] |
| 1330 | 3910 | COc1ccc(/C=N/NC(=O)c2cc(N3CCCCC3)ccc2NC(=O)c2cccc(CSCCC(=O)O)c2)cc1 [Compound 890, 3-{3-[2-(4-Methoxy-benzylidene-hydrazinocarbonyl)-4-piperidin-1-yl-phenylcarbamoyl]-benzylsulfanyl}-propionic acid] |
| 13900 | 1470 | O=C(O)CSCc1cccc(C(=O)Nc2ccc(N3CCCCC3)cc2C(=O)N/N=C/c2ccc(Cl)c(C(F)(F)F)c2)c1 [Compound 891, {3-[2-(4-Chloro-3-trifluoromethyl-benzylidene-hydrazinocarbonyl)-4-piperidin-1-yl-phenylcarbamoyl]-benzylsulfanyl}-acetic acid] |
| 5110 | < 300 | Cc1ccc(/C=N/NC(=O)c2cc(N3CCCCC3)ccc2NC(=O)c2cccc(CN3CCc4nc5ncccc5cc4C3)c2)cc1C [Compound 893, 3-(7,8-Dihydro-5H-1,6,9-triaza-anthracen-6-ylmethyl)-N-[2-(3,4-dimethyl-benzylidene-hydrazinocarbonyl)-4-piperidin-1-yl-phenyl]-benzamide] |
| 3610 | 500 | Cc1ccc(/C=N/NC(=O)c2cc(N3CCCCC3)ccc2NC(=O)c2cccc(CN3CCc4nc5ncccc5cc4C3)c2)cc1 [Compound 894, 3-(7,8-Dihydro-5H-1,6,9-triaza-anthracen-6-ylmethyl)-N-[2-(4-methyl-benzylidene-hydrazinocarbonyl)-4-piperidin-1-yl-phenyl]-benzamide] |
| 5520 | < 300 | O=C(Nc1ccc(N2CCCCC2)cc1C(=O)N/N=C/c1ccc(F)cc1)c1cccc(CN2CCc3nc4ncccc4cc3C2)c1 [Compound 895, 3-(7,8-Dihydro-5H-1,6,9-triaza-anthracen-6-ylmethyl)-N-[2-(4-fluoro-benzylidene-hydrazinocarbonyl)-4-piperidin-1-yl-phenyl]-benzamide] |
